ChEMBL document CHEMBL4725416, “Structure-Based Discovery of Novel Ligands for the Orexin 2 Receptor” (J Med Chem, 2020)
The source made the active and inactive calls. No rule for the calls is given here.

What was measured:
Assay type in all cases: cell-based
[1] = (§1) Displacement of [3H]-EMPA from human orexin 2 receptor expressed in CHO cells incubated for 2 hrs by whole cell radioligand binding assay; settings: for IC50: CHO
[2] = target: T1, Orexin/Hypocretin receptor type 1 (Homo sapiens, UniProt O43613); assay: (§2) Displacement of [3H]-[…] from human orexin 1 receptor expressed in CHO cells incubated for 2 hrs by whole cell radioligand binding assay
T1 sequence (O43613 whole entry): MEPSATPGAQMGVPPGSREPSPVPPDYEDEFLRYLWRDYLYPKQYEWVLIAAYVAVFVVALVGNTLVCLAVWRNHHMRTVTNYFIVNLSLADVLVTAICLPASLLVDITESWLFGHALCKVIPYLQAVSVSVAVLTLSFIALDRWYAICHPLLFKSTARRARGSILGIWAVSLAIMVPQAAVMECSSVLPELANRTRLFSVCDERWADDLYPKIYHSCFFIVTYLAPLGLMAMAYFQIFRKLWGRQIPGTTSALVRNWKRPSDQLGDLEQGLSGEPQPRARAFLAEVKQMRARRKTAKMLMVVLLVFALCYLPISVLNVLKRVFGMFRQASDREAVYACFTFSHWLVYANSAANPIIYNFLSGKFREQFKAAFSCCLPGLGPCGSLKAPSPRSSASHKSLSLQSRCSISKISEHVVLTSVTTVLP

Homo sapiens = species on record: Homo sapiens; assay: as §1
[3] = target: T2, Orexin/Hypocretin receptor type 1 (Homo sapiens) (UniProt O43613); assay: as §2
T2 sequence (whole entry): T1 sequence (O43613 whole entry)

Compound | IC50 [1] [µM] | IC50 [2] [µM] | pKi (Homo sapiens) | pKi [3] | also measured
Cc1nc(C(=O)N2CCC[C@H]2Cc2nnc(-c3ccccc3)o2)c(-c2ccccc2F)s1 |  |  |  |  | pKi [1]: 6.7; Ki [2]: 0.00389 µM
O=C(c1cc(S(=O)(=O)N2CCOCC2)ccc1Cl)N1CCn2c1nc1ccccc12 | > 100 | > 100 |  |  | 
Cc1ccc(C)c(OCC(=O)Oc2ccc3c(C)cc(=O)oc3c2)c1 |  |  | inactive | inactive | 
O=C(Cc1ccc(Cl)cc1)N1CCC(c2noc(-c3ccccn3)n2)CC1 | > 100 |  |  |  | 
Cc1ccc(C(=O)N2CCN(Cc3nnc(-c4ccco4)o3)CC2)cc1F | > 100 |  |  |  | 
CN(Cc1[nH]cc[n+]1C)C(=O)C[C@H]1CN(Cc2ccccc2)CCO1 |  | > 100 | inactive |  | 
O=C(C1CC1)N1CCC[C@@H](Cn2cc(-c3cnc(-c4ccco4)nc3)nn2)C1 |  |  | inactive | inactive | 
COc1cc([C@H]2c3c(oc4ccc(Cl)cc4c3=O)C(=O)N2Cc2ccccc2)ccc1O |  |  | inactive | inactive | 
CC(=O)N1N=C(c2cn(C(C)=O)c3ccccc23)O[C@@H]1c1cccnc1 | > 100 | > 100 |  |  | 
Cc1cccc(C)c1NC(=O)CCCN1C(=O)c2cccnc2C1=O |  |  |  |  | pKi [1]: 4.56; Ki [2]: 33.9 µM
COc1cccc(C(=O)COc2ccc3c(C)c(C)c(=O)oc3c2)c1 |  |  | inactive | inactive | 
Cc1ccc(C(=O)[C@H](C)Oc2cccc(N3C(=O)C4C5C=CC(C5)C4C3=O)c2)cc1 (stereo partly drawn) | > 100 | > 100 |  |  | 
Cc1ccc(C(=O)Oc2ccc(N3C(=O)[C@H]4C5C=CC(C6CC65)[C@@H]4C3=O)cc2)cc1 (stereo partly drawn) |  |  | inactive | inactive | 
N[C@H]1C[C@@H](C(=O)O)N(C(=O)c2ccccc2OCc2ccccc2)C1 |  |  | inactive | inactive | 
Cc1nc(-c2ncccn2)sc1C(=O)OCCn1c(C)nc2ccccc21 | > 100 |  |  |  | 
CN(Cc1[nH]cc[n+]1C)C(=O)CCCc1c[nH]c2ccccc12 | > 100 |  |  |  | 
Cc1nc(-c2ccc(Cl)c(S(=O)(=O)N3CCC[C@@H](C(=O)N4CCc5ccccc54)C3)c2)no1 | > 100 | > 100 |  |  | 
COc1ccc2c(c1)c1c(c(=O)n(Cc3ccccc3)c(=O)n1Cc1cc(=O)n3ccccc3n1)n2C |  |  | inactive | inactive | 
O=C(CCCn1cnc2ccccc2c1=O)NCc1ccccn1 |  |  | inactive | inactive | 
CCN(Cc1cccnc1)C(=O)CN(c1ccc(OC)nc1)S(=O)(=O)c1ccccc1C |  |  |  |  | pKi [1]: 8.17
CC1(C)OC[C@H](NC(=O)Nc2ccc(Br)cc2Br)[C@H](c2ccccc2)O1 |  |  |  |  | pKi [1]: 8.18; Ki [2]: 1.35 µM
Cc1ccc2c(C)c(C(=O)N3CCN(Cc4ccccn4)CC3)oc2c1C | > 100 | > 100 |  |  | 
COc1cc(=O)n2c(c1C(=O)N(C)[C@@H](C)c1ccco1)CCN(C(=O)c1c(F)cccc1F)CC2 |  |  | inactive | inactive | 
CN(Cc1ccncc1)C(=O)c1ccc(COc2ccccc2C#N)o1 |  |  | inactive | inactive | 
CCC(=O)N1CCCN([C@@H](C)C(=O)Nc2ccccc2C(C)=O)CC1 | > 100 |  |  |  | 
Cc1nc(-c2cc(C)n(CC(=O)N3CCC[C@H]3c3ccncc3)c2C)cs1 |  |  |  | inactive | 

Compound | IC50 [1] [µM] | IC50 [2] [µM] | pKi (Homo sapiens) | pKi [3] | also measured
O=C1CCCN1c1cccc(C(=O)N(Cc2ccc(F)cc2)C2CC2)c1 | > 100 |  |  |  | 
COc1cccc(CN2CC3(CCN(Cc4nccs4)CC3)CC2=O)c1 | > 100 |  |  |  | 
CCOc1ccc(-c2n[nH]c3c2[C@H](c2ccccc2OC)NC3=O)cc1 |  |  | inactive | inactive | 
O=C(c1cnc(-c2ccccc2)s1)N1CCC[C@H]1c1ccncc1 | > 100 | > 100 |  |  | 
O=C1c2oc3ccc(Cl)cc3c(=O)c2[C@H](c2cccc([N+](=O)[O-])c2)N1Cc1ccccc1 |  |  | inactive | inactive | 
O=C(CCC(=O)c1ccc2c(c1)OCCO2)Nc1cccc(C#Cc2ccccn2)c1 | > 100 | > 100 |  |  | 
Cc1cc(=O)oc2cc(OCC(=O)c3cccc4ccccc34)ccc12 |  |  | inactive | inactive | 
COc1cccc(-c2nc([C@@H]3CC(=O)N(Cc4ccccc4)C3)no2)c1 | > 100 | > 100 |  |  | 
C=CCOc1cccc([C@H]2c3c(oc4ccc(C)cc4c3=O)C(=O)N2Cc2ccco2)c1 |  |  | inactive | inactive | 
O=C1N(Cc2ccc(F)cc2)C[C@H]2CN(Cc3nccs3)CCN12 |  |  | inactive | inactive | 
CN(CCc1cccc2ccccc12)C(=O)c1c[nH]c(=O)c(Cl)c1 |  |  |  |  | pKi [1]: 4.89; Ki [2]: 14.8 µM
Cn1ccc2c(C(=O)N3CCN(Cc4cscn4)CC3)cccc21 |  |  | inactive | inactive | 
Fc1ccccc1COc1cccc(CNCc2ccccn2)c1 |  | > 100 |  |  | pKi [1]: 4.28
c1ccc(-c2n[nH]cc2-c2nc3c(cnn3Cc3ccncc3)[nH]2)cc1 |  |  |  |  | pKi [1]: 4.82; Ki [2]: 24.5 µM
CCCN1C(C)=NS(=O)(=O)c2cc(C(=O)N3CCN(Cc4ccccc4)CC3)ccc21 |  |  | inactive | inactive | 
O=S(=O)(c1ccc2c(c1)OCCO2)N1CCN(Cc2nc(-c3ccco3)cs2)CC1 |  | > 100 | inactive |  | 
O=C(CCCn1nnc2ccccc2c1=O)NCc1ccccn1 |  |  | inactive | inactive | 
C[C@H](NC(=O)[C@H]1CC(=O)N(c2ccc3c(c2)CCC3)C1)c1cccnc1 |  |  | inactive | inactive | 
O=S(=O)(c1ccc(-c2noc(-c3ccco3)n2)cc1)N1CCCCC1 |  |  | inactive | inactive | 
C[C@H](Cc1cnccn1)n1cc(-c2ccnc3ccccc23)nn1 |  |  | inactive | inactive | 
O=S(=O)([N-]c1nc2ccccc2nc1-[n+]1ccc(Oc2ccccc2)cc1)c1ccccc1 |  |  | inactive | inactive | 
CCc1c(C)c2ccc(OCC(=O)c3ccc(F)cc3)cc2oc1=O |  |  | inactive | inactive | 
Cc1ccc2c(c1)C(=O)N(CCC(=O)N1CCCc3ccccc31)C2=O |  |  | inactive | inactive | 
Cc1nc(COc2ccc(C(=O)N3CCC[C@@H]3c3ccc4c(c3)OCCO4)cc2)cs1 |  | > 100 |  |  | 
O=C1N=C(O)/C(=C\c2ccccc2OCc2ccccc2F)C(=O)N1c1ccc2c(c1)OCO2 |  | > 100 |  |  | 
Cc1ccc(-n2nccn2)c(C(=O)N2CCN(c3nc4cc(Cl)ccc4o3)CC[C@H]2C)c1 [SUVOREXANT] |  |  |  |  | pKi [1]: 8.53

Compound | IC50 [1] [µM] | IC50 [2] [µM] | pKi (Homo sapiens) | pKi [3] | also measured
O=C1c2ccccc2C(=O)N1CCc1nc(-c2cnccn2)no1 | > 100 |  |  |  | 
CN(C)S(=O)(=O)c1cccc(C(=O)N(CCc2ccccc2)c2nc3ccccc3s2)c1 | > 100 |  |  |  | 
O=C1/C(=C/c2ccc(N3CCOCC3)cc2)c2ccccc2N1c1ccccc1 |  |  |  |  | Ki [2]: 17.8 µM
C[C@@H]1CN(c2cccc(Cl)c2)C(=O)CN1C(=O)c1cccc2ccccc12 | > 100 | > 100 |  |  | 
COc1cc(=O)n2c(c1C(=O)N(C)[C@H](C)c1ccco1)CCN(C(=O)C1(c3ccccc3)CC1)CC2 | > 100 | > 100 |  |  | 
O=C(c1ccccc1)[C@H]1CCCN(C(=O)CCc2nc(-c3ccco3)no2)C1 |  | > 100 |  |  | 
COc1ccc2c(c1)c(CC(=O)NCc1ccccn1)c(C)n2C(=O)c1ccc(Cl)cc1 | > 5 | > 5 |  |  | 
CN(Cc1[nH]cc[n+]1Cc1ccccc1)C(=O)c1cccc2cc[nH][n+]12 | > 100 |  |  |  | 
Cc1nn(-c2ccccc2)c(N2CCCC2)c1/C=N/n1cnc2c(cnn2-c2ccccc2)c1=O | > 100 | > 100 |  |  | 
Cc1[nH]c2ccc(C(=O)N3CCN(Cc4ccc5c(c4)OCO5)CC3)cc2c1C | > 100 | > 100 |  |  | 
CN1C(=O)c2ccc(C(=O)OCCCn3c(=O)[nH]c4ccccc43)cc2C1=O | > 100 | > 100 |  |  | 
O=C(CCCn1nnc2ccccc2c1=O)NC1Cc2ccccc2C1 |  | > 100 |  |  | pKi [1]: 4.4
O=C(c1cc2c(s1)-c1ccccc1CC2)N1CCN(Cc2cc(=O)n3ccsc3n2)CC1 | > 100 | > 100 |  |  | 
Cc1cc([C@@H]2CCCCN2C(=O)c2ccc(-c3cc[nH]n3)cc2)no1 | > 100 | > 100 |  |  | 
COc1ccc2cc(CN(C)C(=O)COC(=O)c3c(F)cccc3F)ccc2c1 |  | > 100 |  |  | 
COc1cccc(-c2nc(C(=O)OCc3cccnc3)c(C)[nH]2)c1 |  |  |  |  | pKi [1]: 4.64; Ki [2]: 14.8 µM
Cc1ccc([C@H](CCO)n2cc(-c3ccnc4ccccc34)nn2)cc1 | > 100 | > 100 |  |  | 
Cn1c(-c2ccccc2)c(C(=O)COC(=O)c2ccc3c(=O)n4c(nc3c2)CCC4)c2ccccc21 |  | > 100 | inactive |  | 
O=S(=O)(c1cc(F)cc(F)c1)N1CCN(Cc2csc(-c3ccco3)n2)CC1 | > 100 | > 100 |  |  | 
O=C(/C=C/c1cccc(F)c1)N1CCOc2c(cc(-c3cccnc3)cc2OC[C@H]2CCCCO2)C1 | > 100 |  |  |  | 
COc1cc(=O)n2c(c1C(=O)N(C)Cc1nonc1C)CCN(C(=O)C1(c3ccccc3)CC1)CC2 | > 100 | > 100 |  |  | 
O=C(c1ccc(OCc2cn3ccccc3n2)cc1)N1CCC[C@@H]1c1ccc2c(c1)OCCO2 | > 100 | > 100 |  |  | 
Cc1nc(/C=C/C(=O)Oc2ccc3c(=O)c(-c4c(F)cccc4Cl)c(C)oc3c2)cs1 | > 100 | > 100 |  |  | 
O=C1Nc2cc(C(=O)N3CCN(Cc4ccc5c(c4)OCO5)CC3)ccc2N2CCCC[C@@H]12 | > 100 | > 100 |  |  | 
